From patent publication US20260242390A1, “TOTAL SYNTHESES OF PORTIMINE A AND ANALOGUES THEREOF AS SMALL MOLECULE MODULATORS OF NMD3” (priority 2023, published 2026) come the findings set out here.

Where only a bound is given, the exact number is not on record here.

Assay [1] deals with Jurkat. Description: Washout experiment, Cell Titerglo cell viability. It counts as cell-based, human. Particulars: for IC50: Homo sapiens, Jurkat 50 k per well. In general terms: Cellular ATP, detected with luciferase, serves as a proxy for viable cell number.
A further assay concerns MC38. The assay is described as follows: Broad cell line profiling, MC38. The conditions noted are these: MC-38; MC38, Mouse Colon Carcinoma; read-out: PA IC50. It counts as cell-based. The text has this: (§1) • A panel of human and mouse cancer cell types used to assess the breadth of PA activity, including multiple therapy resistant metastatic mesenchymal tumor cell lines and primary glioblastoma patient-derived metastatic stem/tumor initiating cell populations.

The test system of the next assay is MD-MBA-231. Description: Broad cell line profiling, MD-MBA-231. The format is cell-based. Particulars: Homo sapiens; MD-MBA-231, TNBC Breast Adenocarcinoma; read-out: PA IC50.
From the text: as §1

Another assay deals with U118. The assay is described as follows: Broad cell line profiling, U118. The format is cell-based. Particulars: Homo sapiens; U118, Glioblastoma; read-out: PA IC50.
From the text: as §1

The next assay relates to SUM159. Description: Broad cell line profiling, SUM159. The format is cell-based. Particulars: Homo sapiens; SUM159, Breast Adenocarcinoma; read-out: PA IC50.
From the text: as §1

For the next assay, the system named is HT-1080. The assay is described as follows: Broad cell line profiling, HT-1080. The format is cell-based. The conditions noted are these: HT-1080, Human Fibrosarcoma; read-out: PA IC50.
From the text: as §1

The subject of a further assay is A673. The assay is described as follows: Broad cell line profiling, A673. The format is cell-based. The conditions noted are these: A673, Human Ewings Sarcoma; read-out: PA IC50.
From the text: as §1

Another assay has as its system 4T1. The assay is described as follows: Broad cell line profiling, 4T1. It counts as cell-based. The conditions noted are these: 4T1, Mouse Mammary Carcinoma; read-out: PA IC50.
From the text: as §1

In assay [2] the test system is Jurkat. Description: Broad cell line profiling, Jurkat. It counts as cell-based. Particulars: Human Leukemia, read-out: PA IC50.
From the text: as §1

The next assay relates to MC38 colon carcinoma. Description: MC38 Syngeneic Tumor Xenograft Model. The conditions noted are these: 0.3 or 1.0 mg/kg, i.p. It counts as in vivo, mouse. The procedure:
FIG. 4. Validation of NMD3 as target of Portimine A by Chemo-precipitation (ChP). Portimine A mouse pharmacokinetic properties and fast acting in vitro cell-based target engagement properties based on compound wash-out. (A) Pharmacokinetic studies of mouse intraperitoneal (i.p.) and oral (p.o.) administration for portimine (n=3). […] Impact of PA [0.3 or 1 mg/kg intraperitoneally] on MC38 tumor growth in WT mice (n=6). (C) Kaplan-Myer survival curve of WT MC38 tumor-bearing mice (n=6) after treatment with PA as described in (D). Mice were euthanized when tumor area exceeded 2000 mm^3. Statistical analysis was performed using ANOVA analysis followed by multiple comparisons test, * p≤0.05. Treatment condition: Jurkat (60 M per condition); PA-DA/ePA-DA concentration: 0.5 uM, PA or ePA: 5 uM; Incubate with probe with or without competitors (PA, ePA) for 30 min; UV irradiated for 20 min. (0.5 uM PA-DA add a no-UV condition); Standard pulldown & biotin-enrichment and western blot analysis (Elute condition: 2× sample buffer+500 uM biotin, boil for 20 mins); Primary antibody NMD3 (ProteinTech, 1:150), Actin (BioRad, 1:10000).
FIG. 9. […] (A) Systemic Portimine A in MC38 Syngeneic Tumor Xenograft Model; and (B) Systemic Portimine A in HT-1080 Tumor Xenograft Model. […]

For orientation: IC50 means the midpoint of a concentration-inhibition curve. Consider `C=CC1=C[C@@H]2[C@@H]3O[C@]4(CC[C@H](O4)C(C)C[C@@H](O)C3=O)CC(O)C3=NCC[C@@]32CC1` (stereo partly shown) [PA, portimine A], for which the IC50 in the assay on Jurkat [1] (read-out: IC50 after 30 min exposure, washout at 30 min, total 36 hours) was around 5 nM; with Jurkat [1] (washout at 4 hr, total 36 hours, read-out: IC50 after 4 hr exposure), around 2 nM; with MC38, 0.55 nM; in the assay with MD-MBA-231, 0.68 nM; in the assay on U118, 5.6 nM; in the assay with SUM159, 1.9 nM. Also, the IC50 in the assay on HT-1080 was found to be 0.83 nM; in the assay on A673 it was 2.5 nM; with 4T1, 0.63 nM; with Jurkat [2] it was 0.56 nM. The “exposure resulting in minimal loss of potency” value in the assay with Jurkat [1] (compound washout, cell-based target engagement) is below 1 h. In the assay with Jurkat [1] (washout after 30 min, total 36 hours), the “decrease in IC50 on removing compound after 30 min” value is ~ 5 fold. Moreover, the “anti-tumor activity, MC38 colon carcinoma syngeneic model” value in the assay on MC38 colon carcinoma was “Potent anti-tumor activity”.
